In US8119633B2, “Substituted sulfonamide compounds” (Gruenenthal GmbH, priority 2007, dated 2012) one finds inhibition data, which are given here for ten compounds.

The structures appear in SMILES notation. Where two headings read alike, the source gives them in different places.

For assay [1], the target named is T1, human bradykinin receptor 1 (B1R) (Homo sapiens, UniProt P46663).
T1 construct: expressed in transfected cells; host or cells: CHO K1 cells
T1 sequence (P46663 1-353): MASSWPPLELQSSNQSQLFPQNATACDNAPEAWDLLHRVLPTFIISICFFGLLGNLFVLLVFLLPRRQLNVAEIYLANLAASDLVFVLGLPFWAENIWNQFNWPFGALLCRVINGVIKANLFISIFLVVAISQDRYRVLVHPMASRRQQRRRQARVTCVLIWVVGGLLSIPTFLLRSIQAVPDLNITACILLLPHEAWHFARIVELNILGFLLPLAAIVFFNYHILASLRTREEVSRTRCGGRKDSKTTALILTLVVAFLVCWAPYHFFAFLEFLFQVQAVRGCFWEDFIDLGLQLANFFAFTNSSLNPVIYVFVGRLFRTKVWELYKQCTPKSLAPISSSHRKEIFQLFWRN
Kind of assay: Functional study on the bradykinin receptor 1 (B1R), human: FLIPR Ca2+ influx assay. Type of assay: cell-based. The essentials: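 CHO K1 cells stably expressing human B1R were loaded with Fluo-4, and Ca2+ fluorescence was read on FLIPR (ex 488/em 540 nm). Compound was added first (10 μM for % activation against Lys-Des-Arg9-bradykinin ≥0.5 nM). After 10-20 min, Lys-Des-Arg9-bradykinin was added at EC80 for % inhibition; IC50 came from concentration series, n=2-3, N≥2.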

The target in assay [2] is T2, bradykinin receptor 1 (B1R) of the rat (Rattus norvegicus, UniProt P97583).
T2 construct: expressed in transfected cells; host or cells: CHO K1 cells
T2 sequence (P97583 1-337): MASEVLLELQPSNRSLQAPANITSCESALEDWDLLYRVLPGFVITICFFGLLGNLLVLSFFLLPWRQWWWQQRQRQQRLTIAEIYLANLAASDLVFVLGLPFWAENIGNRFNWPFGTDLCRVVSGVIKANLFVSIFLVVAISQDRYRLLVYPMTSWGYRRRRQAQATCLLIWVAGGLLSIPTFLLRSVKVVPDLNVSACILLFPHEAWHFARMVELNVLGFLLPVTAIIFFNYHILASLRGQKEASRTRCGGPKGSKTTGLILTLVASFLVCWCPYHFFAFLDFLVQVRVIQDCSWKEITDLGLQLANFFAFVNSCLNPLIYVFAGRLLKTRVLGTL
Kind of assay: Functional study on the bradykinin receptor 1 (B1R), rat: FLIPR Ca2+ influx assay. It is filed as cell-based. Put shortly:
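CHO K1 cells stably expressing rat B1R, Fluo-4-loaded, read on FLIPR (ex 488/em 540 nm, peak fluorescence). Test substances added first (agonism vs 10 μM Des-Arg9-bradykinin), then after 10-20 min Des-Arg9-bradykinin at EC80; % inhibition and IC50 from concentration series, n=2-3, N≥2.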

[3] abbreviates: test substance 10 μM, CHO K1 cells transfected with human B1R, Lys-Des-Arg9-bradykinin at EC80, Ca2+ influx (Fluo-4, FLIPR), read-out: B1R antagonism, human [10 μM] % inhibition.
The mark [4] stands for this setting: test substance 10 μM, CHO K1 cells transfected with rat B1R, Des-Arg9-bradykinin at EC80, Ca2+ influx (Fluo-4, FLIPR), read-out: B1R antagonism, rat [10 μM] % inhibition.

Broadly, the inhibition is the relative decrease from the control value, in per cent. For `CN(C)C(c1ccc(Cl)cc1)C1CCC(CNC(=O)c2ccccc2N(C)S(=O)(=O)c2ccc(Cl)c(Cl)c2)CC1` (centres unmarked) [Example 41, N-{4-[(4-chloro-phenyl)-dimethylamino-methyl]-cyclohexylmethyl}-2-[(3,4-dichloro-benzenesulfonyl)-methyl-amino]-benzamide], the inhibition at 10 µM was found to be 22% in assay [1] (setting [3]) and 25% in assay [2] (setting [4]).
For `CN(C)C(c1ccc(F)cc1)C1CCC(CNC(=O)c2ccccc2N(C)S(=O)(=O)c2ccc(Cl)c(Cl)c2)CC1` (centres unmarked) [Example 40, 2-[(3,4-dichloro-benzenesulfonyl)-methyl-amino]-N-{4-[dimethylamino-(4-fluoro-phenyl)-methyl]-cyclohexylmethyl}-benzamide] the same measures were 17.1% and 20%.
The like results for `CN(C)C(c1ccc(F)cc1)C1CCC(NC(=O)CC2c3ccccc3CCN2S(=O)(=O)c2ccc(Cl)c(Cl)c2)CC1` (centres unmarked) [Example 27, 2-(2-(3,4-dichlorophenylsulfonyl)-1,2,3,4-tetrahydroisoquinolin-1-yl)-N-(4-((dimethylamino)(4-fluorophenyl)methyl)cyclohexyl)acetamide] were, in that order, 103% and 78%.
For `COc1ccc(S(=O)(=O)N2CCc3ccccc3C2CC(=O)NCCC2CCC(C(c3ccc(F)cc3)N(C)C)CC2)cc1` (centres unmarked) [Example 24, N-(2-{4-[dimethylamino-(4-fluoro-phenyl)-methyl]-cyclohexyl}-ethyl)-2-[2-(4-methoxy-benzenesulfonyl)-1,2,3,4-tetrahydro-isoquinolin-1-yl]-acetamide] the same measures were 82.2% and 67%.
Consider `CN(C)C(c1cccc(F)c1)C1CCC(NC(=O)c2ccccc2N(C)S(=O)(=O)c2ccc(Cl)c(Cl)c2)CC1` (centres unmarked) [Example 36, 2-[(3,4-dichloro-benzenesulfonyl)-methyl-amino]-N-{4-[dimethylamino-(3-fluoro-phenyl)-methyl]-cyclohexyl}-benzamide], for which the inhibition at 10 µM in assay [1] (setting [3]) came to 64.1%; in assay [2] (setting [4]), 67%.
For `CN(C)C(c1ccccc1)C1CCC(CNC(=O)CC2c3ccccc3CCN2S(=O)(=O)c2ccc(Cl)c(Cl)c2)CC1` (centres unmarked) [Example 29, 2-[2-(3,4-dichloro-benzenesulfonyl)-1,2,3,4-tetrahydro-isoquinolin-1-yl]-N-[4-(dimethylamino-phenyl-methyl)-cyclohexylmethyl]-acetamide] the same measures were 64.5% and 45%.
Take `CN(C)C(c1ccccc1)C1CCC(NC(=O)C2Cc3ccccc3N2S(=O)(=O)c2ccc(Cl)c(Cl)c2)CC1` (centres unmarked) [Example 91, 1-(3,4-dichlorophenylsulfonyl)-N-(4-((dimethylamino)(phenyl)methyl)cyclohexyl)indoline-2-carboxamide]: the inhibition at 10 µM was 17.8% in assay [1] (CHO-K1, read-out: B1R antagonism, human [10 μM] % inhibition) and 8% in assay [2] (CHO-K1, read-out: B1R antagonism, rat [10 μM] % inhibition).
For `COc1ccc(S(=O)(=O)N2CCc3ccccc3C2CC(=O)NC2CCC(C(c3cccc(F)c3)N(C)C)CC2)cc1` (centres unmarked) [Example 13, N-{4-[dimethylamino-(3-fluoro-phenyl)-methyl]-cyclohexyl}-2-[2-(4-methoxybenzenesulfonyl)-1,2,3,4-tetrahydro-isoquinolin-1-yl]-acetamide], the results for the inhibition at 10 µM in assay [1] (setting [3]) and in assay [2] (setting [4]) were 64.4% and 76%, respectively.
The like results for `CN(C)C(c1ccc(Cl)cc1)C1CCC(CCNC(=O)c2ccccc2N(C)S(=O)(=O)c2ccc(Cl)c(Cl)c2)CC1` (centres unmarked) [Example 43, N-(2-{4-[(4-chloro-phenyl)-dimethylamino-methyl]-cyclohexyl}-ethyl)-2-[(3,4-dichloro-benzenesulfonyl)-methyl-amino]-benzamide] were, in that order, 28.9% and 11%.
The like results for `COc1ccc(S(=O)(=O)N2CCc3ccccc3C2CC(=O)NCCC2CCC(C(c3ccc(Cl)cc3)N(C)C)CC2)cc1` (centres unmarked) [Example 22, N-(2-{4-[(4-chloro-phenyl)-dimethylamino-methyl]-cyclohexyl}-ethyl)-2-[2-(4-methoxy-benzenesulfonyl)-1,2,3,4-tetrahydro-isoquinolin-1-yl]-acetamide] were, in that order, 70.3% and 34%.
